Blank lines part the entries; values can stand above or below the compound they belong to.
Legend:
[1] = Weights of fibers with liquid membranes as a function of time and storing condition; assay type: physicochemical
[2] = supported liquid membranes of WO 02/088672; cited from earlier work
[3] = Extraction ability and storage stability of supported liquid membranes on hollow fibers (in words); assay type: physicochemical; settings: polypropylene fibers, after 30 days of storage at room temperature
Method: The liquid membrane was formed by dipping the hollow fiber into the organic solvent for 5 to 30 sec to allow the solvent to penetrate into the pores of the fiber. Then acceptor solution was introduced into the lumen of the fiber using a syringe. The acceptor solution was 10 mM HCl, having a pH of 2. Extraction ability was tested by immersing the hollow fibers with their supported liquid membranes into a sample vial containing 4 mL of a solution containing 5 basic drugs, at a pH of 12, with stirring, and allowing the analytes to equilibrate across the liquid membranes to the acceptor solution within (25 μl 10 mM HCl). After allowing the sample analytes sufficient time to reach equilibration with the acceptor solution, about 15 to 60 minutes, the acceptor solution was withdrawn from the hollow fibers, and the concentration of analytes was determined using capillary electrophoresis.
Experiments were performed using polypropylene and polysulfone hollow fibers, testing the effectiveness and stability of liquid membranes comprising fatty oils in the extraction of analytes from samples after storage of the fibers for 30 days prior to use. Supported liquid membranes were established on the hollow fibers using the procedures described in Example 1 above, but substituting the following oils for the organic solvents tested in Example 1: tributyrin, soya oil, or olive oil. […]

Weight (mg) of fibers ([1]; DDA table, closed container, Day 0): 42.40 mg
Weight (mg) of fibers ([1]; DDA table, closed container, Day 3): 42.14 mg
Weight (mg) of fibers ([1]; DDA table, closed container, Day 10): 42.12 mg
Weight (mg) of fibers ([1]; DDA table, open to the air, Day 0): 45.94 mg
Weight (mg) of fibers ([1]; DDA table, open to the air, Day 2): 43.92 mg
Weight (mg) of fibers ([1]; DDA table, open to the air, Day 5): 41.70 mg
Structure (SMILES): CCCCCCCCCCCCOC(C)=O [DDA, dodecyl acetate]

Weight (mg) of fibers ([1]; MA table, closed container, Day 0): 38.76 mg
Weight (mg) of fibers ([1]; MA table, closed container, Day 4): 38.72 mg
Weight (mg) of fibers ([1]; MA table, open to the air, Day 0): 41.36 mg
Weight (mg) of fibers ([1]; MA table, open to the air, Day 4): 40.90 mg
Structure (SMILES): CCCCCCCCCCCCCC(=O)OC(C)=O [MA, myristoyl acetate]

Structure (SMILES): CCCCCCCCOc1ccccc1[N+](=O)[O-] [NPOE, nitropheyloctyl ether]
Membrane lifetime [2]: 10 to 20 days

Extraction performance [3]: extracted analytes
Structure (SMILES): CCCC(=O)OCC(COC(=O)CCC)OC(=O)CCC [tributyrin]
